{
  "source": "patent US20120321577A1",
  "about": "“Skin-whitening composition containing tyrosinase inhibitor” (priority 2011, published 2012)",
  "origin": "cited, not measured here",
  "settings": "conventionally",
  "data": [
    {"smiles": "NC[C@H]1CC[C@H](C(=O)O)CC1", "note": "[tranexamic acid]", "values": [
      {"measurement": "concentration needed to give whitening effect", "value": "higher than 3%"}
    ]}
  ]
}
